According to paper PMC3589659 (Investigational New Drugs, 2012):
Where two headings read alike, the source gives them in different places. Marks after values point to notes of the source that are not given here.

Assays:
[1] = test system: patients with advanced solid tumors; assay: Safety and tolerability: adverse events graded by CTCAE version 3.0; assay type: in vivo, human
[2] = test system: patients with advanced solid tumors; details: human, in vivo
[3] = test system: Ki-67 in epidermal keratinocytes; details: doses of ≥ 55 mg/day, Day 21 versus pretreatment
[4] = human, in vivo
clinical = details: human, in vivo; for AUC(0-t): AUC0–24,ss; for CL/F: CL/Fss; for Cmax: Cmax,ss; for Vd/F: Vz/Fss
[5] = Plasma pharmacokinetics, non-compartmental analysis; details: 65 mg once daily, Day 21, individual values of 2 patients
advanced solid tumors = assay: Antitumor activity, objective tumor response by RECIST 1.0
[6] = test system: pAkt in epidermal keratinocytes; assay: Pharmacodynamics: immunohistochemistry on skin punch biopsies, pAkt; details: pretreatment versus on-therapy (Day 21)
[7] = test system: pMAPK in epidermal keratinocytes; assay: Pharmacodynamics: immunohistochemistry on skin punch biopsies, pMAPK; details: pretreatment versus on-therapy (Day 21)
[8] = test system: p27^KIP1 in epidermal keratinocytes; assay: Pharmacodynamics: immunohistochemistry on skin punch biopsies, p27KIP1; details: doses of ≥ 55 mg/day, Day 21
[9] = test system: patients with advanced solid tumors; assay: Phase I dose escalation: dose-limiting toxicities and maximum tolerated dose; details: oral once daily, 3-week-on/1-week-off schedule

CN(C)C/C=C/C(=O)Nc1cc2c(Nc3ccc(F)c(Cl)c3)ncnc2cc1O[C@H]1CCOC1 [afatinib]
drug-related diarrhea ([1]; 10 mg): no drug-related diarrhea was observed
treatment-related Grade ≥2 AEs ([1]; 10 mg dose cohort): No treatment-related Grade ≥2 AEs were observed
drug-related diarrhea ([1]; 20 mg): no drug-related diarrhea was observed
patients who developed diarrhea ([1]; 40 mg): 50%
Discontinued due to other toxicity, n (%) ([1]; 40 mg/day): 1 (12.5) n (%)
patients who developed diarrhea ([1]; 55 mg): 90%
Discontinued due to other toxicity, n (%) ([1]; 55 mg/day): 4 (20.0) n (%)
Discontinued due to other toxicity, n (%) ([1]; 65 mg/day): 2 (33.3) n (%)
patients who developed diarrhea ([1]; 65 mg/day): 100%
Discontinued due to other toxicity, n (%) ([1]; Total, all doses): 7 (16.3) n (%)
Grade 4 or 5 AEs ([1]; all doses): No Grade 4 or 5 AEs were observed
Grade ≥2 reductions in LVEF ([1]; all doses): No patients had Grade ≥2 reductions in LVEF
cases in which diarrhea started within 1–7 days after treatment initiation ([1]; all doses): 80%
patients who experienced a serious adverse event (SAE) ([1]; all doses): 34.9%
patients with drug-related AEs within their first 28-day cycle ([1]; all doses): 38 patients
skin events considered to be related to afatinib ([1]; all doses): 91%
drug-related anorexia ([1]; all doses, entire trial): 16.3%
drug-related diarrhea ([1]; all doses, entire trial): 65.1%
drug-related epistaxis ([1]; all doses, entire trial): 23.3%
drug-related fatigue ([1]; all doses, entire trial): 20.9%
drug-related mucosal inflammation ([1]; all doses, entire trial): 23.3%
drug-related nausea ([1]; all doses, entire trial): 41.9%
drug-related rash ([1]; all doses, entire trial): 58.1%
drug-related stomatitis ([1]; all doses, entire trial): 25.6%
drug-related vomiting ([1]; all doses, entire trial): 34.9%
start of skin events after treatment initiation ([1]; majority of cases): 7 to 28 days
start of diarrhea after afatinib treatment initiation ([1]; majority of cases (80 %)): 1 to 7 days
deaths during afatinib administration considered to be related to afatinib ([1]; three deaths occurred): None
Discontinued due to DLT, n (%) [2]: 4 (9.3) n (%)
DLTs occurring during the first treatment cycle, n (%) ([2]; 28 day): 11 (25.6) n (%)
recommended dose for further studies using this schedule ([2]; 28 day): 40 mg/day
reduction of the number of Ki-67-positive cells in skin biopsies [3]: 31%
time to reach steady-state [4]: ≤ 8 days
AUC0–24,ss,norm ([4]; 10 mg): 6.37 (99.8) [ng·h/mL]/mg
Cmax,ss,norm ([4]; 10 mg): 0.399 (83.7) [ng/mL]/mg
AUC0–24,ss,norm ([4]; 20 mg): 22.8 (61.8) [ng·h/mL]/mg
Cmax,ss,norm ([4]; 20 mg): 1.57 (94.1) [ng/mL]/mg
AUC0–24,ss,norm ([4]; 40 mg): 22.7 (69.1) [ng·h/mL]/mg
Cmax,ss,norm ([4]; 40 mg): 1.47 (83.7) [ng/mL]/mg
AUC0–24,ss,norm ([4]; 55 mg): 24.7 (68.1)^b [ng·h/mL]/mg
Cmax,ss,norm ([4]; 55 mg): 1.65 (67.8)^b [ng/mL]/mg
Tmax (clinical; 10 mg): 4 h
half-life (clinical; 10 mg): 35.7 h
AUC(0-t) (clinical; 10 mg): 63.7 ng·h/mL
CL/F (clinical; 10 mg): 2620 mL/min
Cmax (clinical; 10 mg): 3.99 ng/mL
Vd/F (clinical; 10 mg): 8080 L
half-life (clinical; 20 mg): 43.2 h
AUC(0-t) (clinical; 20 mg): 455 ng·h/mL
CL/F (clinical; 20 mg): 732 mL/min
Cmax (clinical; 20 mg): 31.3 ng/mL
Vd/F (clinical; 20 mg): 2740 L
half-life (clinical; 40 mg): 42.8 h
CL/F (clinical; 40 mg): 734 mL/min
Cmax (clinical; 40 mg): 58.9 ng/mL
Vd/F (clinical; 40 mg): 2720 L
half-life (clinical; 55 mg): 35.1 h
AUC(0-t) (clinical; 55 mg): 1360 ng·h/mL
CL/F (clinical; 55 mg): 653 mL/min
Cmax (clinical; 55 mg): 90.8 ng/mL
Vd/F (clinical; 55 mg): 2040 L
Tmax (clinical; 65 mg): 9 h
t½,ss [5]: 25.8 h
Discontinued due to disease progression, n (%) (advanced solid tumors; 10 mg/day): 3 (100.0) n (%)
Discontinued due to disease progression, n (%) (advanced solid tumors; 20 mg/day): 2 (33.3) n (%)
Discontinued due to disease progression, n (%) (advanced solid tumors; 40 mg/day): 3 (37.5) n (%)
Discontinued due to disease progression, n (%) (advanced solid tumors; 55 mg/day): 8 (40.0) n (%)
Discontinued due to disease progression, n (%) (advanced solid tumors; 65 mg/day): 1 (16.7) n (%)
confirmed objective responses (advanced solid tumors; RECIST 1.0, all doses): no confirmed objective responses
Discontinued due to disease progression, n (%) (advanced solid tumors; Total, all doses): 17 (39.5) n (%)
decrease in tumor size (advanced solid tumors; one patient with CRC): 14%
decrease in tumor size (advanced solid tumors; one patient with NSCLC): 27%
tumor shrinkage (advanced solid tumors; one patient with parotid carcinoma, Cycle 4, maintained until Cycle 6): 13%
patients with stable disease for at least 16 weeks (advanced solid tumors; received at least 5 cycles of treatment): 8 patients
change in level of pAkt in paired skin biopsies [6]: no significant difference
change in level of pMAPK in normal skin punch biopsies [7]: No significant changes
increase in the total number of p27^KIP1-positive epidermal keratinocytes versus pretreatment [8]: about 16%
maximum tolerated dose (MTD) [9]: 55 mg/day
